Measured values taken from ChEMBL document CHEMBL3885861, “Open TG-GATES”.

Organism: Rattus norvegicus
Assay: Open TG-GATES - Regimen: Daily Repeat
Assay type: toxicity, organism-based, Sprague-Dawley
Parameters: regimen Daily Repeat, gender Male, age 6 weeks
Conditions: in vivo, po, 200 mg/kg, route gavage, dose level High; for Bas / Eos / Fbg / Hb / Ht / Lym / MCH / MCHC / MCV / Mono / PT / Plat / RBC / Ret / WBC / APTT: tissue Blood; for KIDNEY_L / KIDNEY_R / KIDNEY_TOTAL: tissue Kidney; for ALP / ALT / AST / BUN / CRE / DBIL / GLC / IP / K / LDH / Na / PL / RALB / TBIL / TC / TG / TP / gamma-GTP / Ca: tissue Plasma

Work on `CC(C)Cc1ccc(C(C)C(=O)O)cc1` (stereo not drawn) [IBUPROFEN] yielded a Bas (72 h, time 3 day) of 0%, an Eos (72 h, time 3 day) of 1% and a Fbg (72 h, time 3 day) of 465.4 mg/dL. It also gave a Hb (72 h, time 3 day) of 9.9 g/dL, a Ht (72 h, time 3 day) of 29.9% and a Lym (72 h, time 3 day) of 66.2%. It also gave an MCH (72 h, time 3 day) of 21.1 pg, an MCHC (72 h, time 3 day) of 33.2% and an MCV (72 h, time 3 day) of 63.7 fL. For the same compound, the Mono (72 h, time 3 day) was 4.8%, the PT (72 h, time 3 day) was 15.1 s and the Plat (72 h, time 3 day) was 111.5 x10_4/uL. It also gave an RBC (72 h, time 3 day) of 472.2 x10_4/ul, a Ret (72 h, time 3 day) of 11% and a WBC (72 h, time 3 day) of 175.1 x10_2/uL. For the same compound, the KIDNEY_L (72 h, time 3 day) was 0.9 g, the KIDNEY_R (72 h, time 3 day) was 1 g and the KIDNEY_TOTAL (72 h, time 3 day) was 1.9 g. It also gave an ALP (72 h, time 3 day) of 841.6 IU/L, an ALT (72 h, time 3 day) of 34.4 IU/L and an AST (72 h, time 3 day) of 59.4 IU/L. It also gave a BUN (72 h, time 3 day) of 16.2 mg/dL, a CRE (72 h, time 3 day) of 0.1 mg/dL and a DBIL (72 h, time 3 day) of 0 mg/dL. For the same compound, the GLC (72 h, time 3 day) was 171 mg/dL, the IP (72 h, time 3 day) was 7.9 mg/dL and the K (72 h, time 3 day) was 4.5 meq/L. It also gave an LDH (72 h, time 3 day) of 122.6 IU/L, a Na (72 h, time 3 day) of 140.8 meq/L and a PL (72 h, time 3 day) of 147.2 mg/dL. It also gave an RALB (72 h, time 3 day) of 2.4 g/dL, a TBIL (72 h, time 3 day) of 0.004 mg/dL and a TC (72 h, time 3 day) of 86 mg/dL. For the same compound, the TG (72 h, time 3 day) was 116.2 mg/dL, the TP (72 h, time 3 day) was 4.8 g/dL and the gamma-GTP (72 h, time 3 day) was 1.6 IU/L. The TERMINAL_BW ([…], time 7 day) was 228.5 g, the TERMINAL_BW ([…], time 14 day) was 217 g and the TERMINAL_BW ([…], time 28 day) was 319 g. The APTT ([…], time 7 day) was 20.3 s, the Bas ([…], time 7 day) was 0% and the Eos ([…], time 7 day) was 1.4%. It also gave a Fbg ([…], time 7 day) of 360.2 mg/dL, a Hb ([…], time 7 day) of 9.5 g/dL and a Ht ([…], time 7 day) of 29.8%. For the same compound, the Lym ([…], time 7 day) was 65.6%, the MCH ([…], time 7 day) was 21.1 pg and the MCV ([…], time 7 day) was 66.4 fL. The Mono ([…], time 7 day) was 3.6%, the PT ([…], time 7 day) was 16.4 s and the Plat ([…], time 7 day) was 198 x10_4/uL. For the same compound, the RBC ([…], time 7 day) was 450 x10_4/ul, the Ret ([…], time 7 day) was 20.9% and the WBC ([…], time 7 day) was 213.7 x10_2/uL. It also gave an APTT ([…], time 14 day) of 18.9 s, a Bas ([…], time 14 day) of 0% and an Eos ([…], time 14 day) of 1.2%. For the same compound, the Fbg ([…], time 14 day) was 455.2 mg/dL, the Hb ([…], time 14 day) was 6.4 g/dL and the Ht ([…], time 14 day) was 23.2%. It also gave a Lym ([…], time 14 day) of 56.6%, an MCH ([…], time 14 day) of 17.8 pg and an MCHC ([…], time 14 day) of 27.3%. For the same compound, the MCV ([…], time 14 day) was 65.3 fL, the Mono ([…], time 14 day) was 5% and the PT ([…], time 14 day) was 16.5 s. It also gave a Plat ([…], time 14 day) of 274.3 x10_4/uL, an RBC ([…], time 14 day) of 354.6 x10_4/ul and a Ret ([…], time 14 day) of 36.9%. For the same compound, the WBC ([…], time 14 day) was 225.9 x10_2/uL, the APTT ([…], time 28 day) was 19.1 s and the Bas ([…], time 28 day) was 0%. The Eos ([…], time 28 day) was 2.2%, the Fbg ([…], time 28 day) was 434.8 mg/dL and the Hb ([…], time 28 day) was 7.6 g/dL. It also gave a Lym ([…], time 28 day) of 48.8%, an MCH ([…], time 28 day) of 17.5 pg and an MCHC ([…], time 28 day) of 28%. It also gave an MCV ([…], time 28 day) of 62.7 fL, a Mono ([…], time 28 day) of 3% and a PT ([…], time 28 day) of 16.6 s. It also gave a Plat ([…], time 28 day) of 195.7 x10_4/uL, an RBC ([…], time 28 day) of 433.5 x10_4/ul and a WBC ([…], time 28 day) of 190.5 x10_2/uL. It also gave a KIDNEY_L ([…], time 7 day) of 1 g, a KIDNEY_R ([…], time 7 day) of 1 g and a KIDNEY_TOTAL ([…], time 7 day) of 2.1 g. It also gave a KIDNEY_L ([…], time 14 day) of 1 g, a KIDNEY_R ([…], time 14 day) of 1.1 g and a KIDNEY_TOTAL ([…], time 14 day) of 2.1 g. The KIDNEY_L ([…], time 28 day) was 1.4 g, the KIDNEY_R ([…], time 28 day) was 1.4 g and the KIDNEY_TOTAL ([…], time 28 day) was 2.8 g. For the same compound, the ALP ([…], time 7 day) was 793 IU/L, the AST ([…], time 7 day) was 63 IU/L and the BUN ([…], time 7 day) was 18.6 mg/dL. The CRE ([…], time 7 day) was 0.2 mg/dL, the DBIL ([…], time 7 day) was 0 mg/dL and the GLC ([…], time 7 day) was 179.6 mg/dL. It also gave an IP ([…], time 7 day) of 7.8 mg/dL, a K ([…], time 7 day) of 4.3 meq/L and an LDH ([…], time 7 day) of 145 IU/L. It also gave a Na ([…], time 7 day) of 140.4 meq/L, a PL ([…], time 7 day) of 161.6 mg/dL and an RALB ([…], time 7 day) of 2.7 g/dL. It also gave a TBIL ([…], time 7 day) of 0.002 mg/dL, a TC ([…], time 7 day) of 84 mg/dL and a TG ([…], time 7 day) of 148.6 mg/dL. It also gave a TP ([…], time 7 day) of 5.1 g/dL, a gamma-GTP ([…], time 7 day) of 2 IU/L and an ALP ([…], time 14 day) of 502.2 IU/L. For the same compound, the ALT ([…], time 14 day) was 25.6 IU/L, the AST ([…], time 14 day) was 55.2 IU/L and the BUN ([…], time 14 day) was 15.4 mg/dL. The CRE ([…], time 14 day) was 0.2 mg/dL, the Ca ([…], time 14 day) was 10.2 mg/dL and the DBIL ([…], time 14 day) was 0 mg/dL. For the same compound, the GLC ([…], time 14 day) was 159.6 mg/dL, the IP ([…], time 14 day) was 8.4 mg/dL and the K ([…], time 14 day) was 4.4 meq/L. The LDH ([…], time 14 day) was 145.8 IU/L, the Na ([…], time 14 day) was 140.4 meq/L and the PL ([…], time 14 day) was 167.4 mg/dL. It also gave an RALB ([…], time 14 day) of 2.2 g/dL, a TBIL ([…], time 14 day) of 0.004 mg/dL and a TC ([…], time 14 day) of 81.2 mg/dL. For the same compound, the TG ([…], time 14 day) was 239.2 mg/dL, the TP ([…], time 14 day) was 4.8 g/dL and the gamma-GTP ([…], time 14 day) was 2.6 IU/L. For the same compound, the ALP ([…], time 28 day) was 493.2 IU/L, the ALT ([…], time 28 day) was 30 IU/L and the AST ([…], time 28 day) was 64 IU/L. It also gave a BUN ([…], time 28 day) of 18 mg/dL, a CRE ([…], time 28 day) of 0.2 mg/dL and a Ca ([…], time 28 day) of 10.4 mg/dL. It also gave a DBIL ([…], time 28 day) of 0 mg/dL, a GLC ([…], time 28 day) of 164.2 mg/dL and an IP ([…], time 28 day) of 7 mg/dL. It also gave a K ([…], time 28 day) of 4.2 meq/L, an LDH ([…], time 28 day) of 158.8 IU/L and a Na ([…], time 28 day) of 141.2 meq/L. The PL ([…], time 28 day) was 191.5 mg/dL, the RALB ([…], time 28 day) was 2.4 g/dL and the TBIL ([…], time 28 day) was 0 mg/dL. The TC ([…], time 28 day) was 95 mg/dL, the TG ([…], time 28 day) was 283.8 mg/dL and the TP ([…], time 28 day) was 5.1 g/dL. It also gave a gamma-GTP ([…], time 28 day) of 4.2 IU/L.
